In ChEMBL document CHEMBL1201862, “PubChem BioAssay data set” (2004):
Calls of active or inactive are those of the source.

Tests used:
[1] = Shn3 3'UTR reporter inhibitors, dose response, cell-based, Clone20 osteoblasts, firefly luciferase, cherry-picked (AID 624132); assay type: functional;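 further: firefly luciferase luminescence from reporter carrying the Shn3 3'UTR in osteoblasts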
[2] = HepG2 cell cytotoxicity, dose response, cytotoxicity control for Shn3 inhibitor project, CellTiter-Glo, cherry-picked (AID 624134); assay type: functional, cell-based
[3] = control 3'UTR Renilla luciferase suppression, dose response, counter-screen for Shn3 inhibitor project, cell-based, Clone20-Shn3RL, cherry-picked (AID 624133); assay type: functional
P388/ADR = experiment: cells; assay type: functional; settings: Mus musculus
SN12K1 = experiment: cells; assay type: functional; settings: Homo sapiens
P388 = experiment: cells; assay type: functional; settings: Mus musculus
[4] = target: T1, High affinity choline transporter 1 (Homo sapiens, UniProt Q9GZV3); experiment: CHT inhibitors, dose response, cell-based, 5-point CRC, membrane potential dye (AID 504840); assay type: functional
T1 sequence (Q9GZV3 whole entry): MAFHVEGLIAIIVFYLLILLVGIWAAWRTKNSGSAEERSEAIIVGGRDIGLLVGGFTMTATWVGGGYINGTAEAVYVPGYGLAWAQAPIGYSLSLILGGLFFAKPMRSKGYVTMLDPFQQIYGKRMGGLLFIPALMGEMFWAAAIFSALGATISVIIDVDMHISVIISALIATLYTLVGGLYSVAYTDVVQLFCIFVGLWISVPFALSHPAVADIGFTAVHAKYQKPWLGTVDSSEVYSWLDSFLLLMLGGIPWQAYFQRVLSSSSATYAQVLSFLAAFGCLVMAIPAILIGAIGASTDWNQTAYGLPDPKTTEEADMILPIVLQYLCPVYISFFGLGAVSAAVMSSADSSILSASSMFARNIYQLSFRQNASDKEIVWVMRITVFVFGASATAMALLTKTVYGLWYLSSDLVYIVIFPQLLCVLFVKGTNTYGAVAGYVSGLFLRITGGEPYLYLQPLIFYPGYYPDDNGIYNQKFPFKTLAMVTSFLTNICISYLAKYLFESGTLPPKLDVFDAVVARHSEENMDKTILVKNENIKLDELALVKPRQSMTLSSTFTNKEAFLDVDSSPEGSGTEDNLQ

[5] = target: T2, Corticotropin-releasing factor receptor 2/Corticotropin-releasing factor-binding protein (Homo sapiens, UniProt P24387+Q13324); experiment: Dose Response confirmation of uHTS hits for small molecule antagonists of the CRF-binding protein and CRF-R2 receptor complex.; assay type: functional; settings: read-out: IC50_Mean
T2 sequence (Q13324 whole entry): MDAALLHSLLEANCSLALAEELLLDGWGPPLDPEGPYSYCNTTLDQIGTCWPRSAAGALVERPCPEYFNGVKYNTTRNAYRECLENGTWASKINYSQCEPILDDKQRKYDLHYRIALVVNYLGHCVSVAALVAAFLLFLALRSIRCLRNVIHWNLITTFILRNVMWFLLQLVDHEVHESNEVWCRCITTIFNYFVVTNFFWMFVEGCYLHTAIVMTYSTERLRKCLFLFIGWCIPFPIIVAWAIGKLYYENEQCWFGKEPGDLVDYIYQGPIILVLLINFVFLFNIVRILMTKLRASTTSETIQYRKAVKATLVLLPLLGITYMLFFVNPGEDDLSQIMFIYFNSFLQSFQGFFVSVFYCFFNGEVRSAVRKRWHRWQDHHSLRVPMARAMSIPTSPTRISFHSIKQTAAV
T2 sequence (P24387 whole entry): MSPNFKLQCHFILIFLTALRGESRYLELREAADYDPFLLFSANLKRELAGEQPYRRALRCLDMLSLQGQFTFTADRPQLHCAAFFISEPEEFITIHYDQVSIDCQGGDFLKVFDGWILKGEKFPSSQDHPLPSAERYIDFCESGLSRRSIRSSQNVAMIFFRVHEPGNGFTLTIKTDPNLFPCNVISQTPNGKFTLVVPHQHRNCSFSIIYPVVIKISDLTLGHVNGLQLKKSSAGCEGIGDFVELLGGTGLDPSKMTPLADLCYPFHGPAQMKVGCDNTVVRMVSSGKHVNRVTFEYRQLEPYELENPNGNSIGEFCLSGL

[6] = target: T2, Corticotropin-releasing factor receptor 2/Corticotropin-releasing factor-binding protein; experiment: activators of CRF receptor 2 with binding protein – uHTS hits, confirmation (AID 602473); assay type: functional; settings: read-out: EC50_Mean
[7] = target: T3, Polyadenylate-binding protein 1 (Homo sapiens, UniProt P11940); experiment: PABP1 MLLE–PAM2 interaction inhibitors, dose response, miRNA deadenylation inhibitor project, biochemical, fluorescence polarization, Cy5-PAM2 peptide, secondary (AID 602260); assay type: functional; settings: read-out: IC50_Mean
[8] = target: T3, Polyadenylate-binding protein 1; experiment: PABP1 MLLE–PAM2 binding inhibitor potency, dose response, biochemical, fluorescence polarization, FITC-PAM2 peptide (AID 602259); assay type: functional; settings: read-out: IC50_Mean
[9] = target: Voltage-dependent T-type calcium channel subunit alpha-1H (Homo sapiens, UniProt O95180); assay type: functional;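 further: channel activity triggered by adding a high calcium stimulation buffer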
[10] = HEp-2 cell cytotoxicity, dose response, cytotoxicity control for RSV inhibitor project, HTS (AID 2410); assay type: functional; settings: human respiratory syncytial virus
[11] = inhibitors of firefly luciferase expression or activity, dose response, H4 neuroglioma cells, luminescence (AID 1990); assay type: functional, cell-based
[12] = Luminescence Cell-Based Dose Response HTS to Identify Inhibitors of 5'UTR Stem-Loop Driven Prion Protein mRNA Translation in H4 Neuroglioblastoma Cells. [Related pubchem assays: 1827 (Project Summary), 1813 (Primary HTS)]; assay type: functional
[13] = inhibitors of SNCA 5'UTR-driven reporter translation, confirmation, H4 neuroglioma cells, luminescence (AID 1988); assay type: functional, cell-based
[14] = target: T4, Heat shock factor protein 1 (Mus musculus, UniProt P38532); experiment: HSF1 potentiators in luciferase reporter cells, confirmation, cell-based, NIH3T3, luminescence, dose retest (AID 435004); assay type: functional;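 further: stress induced by proteasome inhibitor MG132 added 30 min after compound; luciferase reporter driven by HSF1 response element in NIH3T3 cells; actives raise luminescence as potentiators of the MG132 stress response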
T4 sequence (P38532 whole entry): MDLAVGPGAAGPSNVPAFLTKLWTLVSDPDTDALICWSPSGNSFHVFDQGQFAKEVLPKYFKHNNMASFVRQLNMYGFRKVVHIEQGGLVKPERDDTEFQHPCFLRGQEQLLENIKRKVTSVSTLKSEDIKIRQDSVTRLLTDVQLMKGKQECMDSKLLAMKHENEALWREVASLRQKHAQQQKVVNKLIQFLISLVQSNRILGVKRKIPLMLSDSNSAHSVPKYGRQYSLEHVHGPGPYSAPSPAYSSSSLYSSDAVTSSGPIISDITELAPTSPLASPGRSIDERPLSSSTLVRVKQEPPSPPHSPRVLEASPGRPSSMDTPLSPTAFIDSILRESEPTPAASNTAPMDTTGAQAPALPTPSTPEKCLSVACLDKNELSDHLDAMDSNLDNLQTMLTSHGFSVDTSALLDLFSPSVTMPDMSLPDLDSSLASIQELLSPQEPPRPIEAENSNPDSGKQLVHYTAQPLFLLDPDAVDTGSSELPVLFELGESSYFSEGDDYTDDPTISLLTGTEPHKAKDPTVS

[15] = target: T5, Ubiquitin-conjugating enzyme E2 N (Homo sapiens, UniProt P61088); assay type: functional;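 further: Dose-response confirmation in a TR-FRET assay detecting UBC13-driven polyubiquitin chain formation, inhibition measured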
T5 sequence (P61088 whole entry): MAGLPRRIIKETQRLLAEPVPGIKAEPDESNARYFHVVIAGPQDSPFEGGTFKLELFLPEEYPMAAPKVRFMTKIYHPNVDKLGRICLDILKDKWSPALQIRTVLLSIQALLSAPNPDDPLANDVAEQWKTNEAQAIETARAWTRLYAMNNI

T3 sequence (P11940 whole entry): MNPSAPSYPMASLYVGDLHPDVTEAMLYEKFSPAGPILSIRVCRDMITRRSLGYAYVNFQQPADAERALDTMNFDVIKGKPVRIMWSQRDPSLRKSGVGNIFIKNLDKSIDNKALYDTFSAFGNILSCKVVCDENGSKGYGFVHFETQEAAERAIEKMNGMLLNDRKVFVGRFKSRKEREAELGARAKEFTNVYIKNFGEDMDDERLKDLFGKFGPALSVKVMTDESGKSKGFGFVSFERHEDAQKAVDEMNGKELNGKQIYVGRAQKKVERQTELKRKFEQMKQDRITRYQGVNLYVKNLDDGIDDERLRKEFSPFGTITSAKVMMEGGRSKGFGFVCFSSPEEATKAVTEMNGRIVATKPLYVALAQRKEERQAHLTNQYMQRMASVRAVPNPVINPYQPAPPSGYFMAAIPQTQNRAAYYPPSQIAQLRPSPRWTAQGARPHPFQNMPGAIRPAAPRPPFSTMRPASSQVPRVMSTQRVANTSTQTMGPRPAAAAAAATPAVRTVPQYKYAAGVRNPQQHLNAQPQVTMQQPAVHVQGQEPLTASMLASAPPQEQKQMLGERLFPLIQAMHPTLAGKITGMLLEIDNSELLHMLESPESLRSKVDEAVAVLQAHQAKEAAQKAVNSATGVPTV
Chain of Voltage-dependent T-type calcium channel subunit alpha-1H (O95180 whole entry): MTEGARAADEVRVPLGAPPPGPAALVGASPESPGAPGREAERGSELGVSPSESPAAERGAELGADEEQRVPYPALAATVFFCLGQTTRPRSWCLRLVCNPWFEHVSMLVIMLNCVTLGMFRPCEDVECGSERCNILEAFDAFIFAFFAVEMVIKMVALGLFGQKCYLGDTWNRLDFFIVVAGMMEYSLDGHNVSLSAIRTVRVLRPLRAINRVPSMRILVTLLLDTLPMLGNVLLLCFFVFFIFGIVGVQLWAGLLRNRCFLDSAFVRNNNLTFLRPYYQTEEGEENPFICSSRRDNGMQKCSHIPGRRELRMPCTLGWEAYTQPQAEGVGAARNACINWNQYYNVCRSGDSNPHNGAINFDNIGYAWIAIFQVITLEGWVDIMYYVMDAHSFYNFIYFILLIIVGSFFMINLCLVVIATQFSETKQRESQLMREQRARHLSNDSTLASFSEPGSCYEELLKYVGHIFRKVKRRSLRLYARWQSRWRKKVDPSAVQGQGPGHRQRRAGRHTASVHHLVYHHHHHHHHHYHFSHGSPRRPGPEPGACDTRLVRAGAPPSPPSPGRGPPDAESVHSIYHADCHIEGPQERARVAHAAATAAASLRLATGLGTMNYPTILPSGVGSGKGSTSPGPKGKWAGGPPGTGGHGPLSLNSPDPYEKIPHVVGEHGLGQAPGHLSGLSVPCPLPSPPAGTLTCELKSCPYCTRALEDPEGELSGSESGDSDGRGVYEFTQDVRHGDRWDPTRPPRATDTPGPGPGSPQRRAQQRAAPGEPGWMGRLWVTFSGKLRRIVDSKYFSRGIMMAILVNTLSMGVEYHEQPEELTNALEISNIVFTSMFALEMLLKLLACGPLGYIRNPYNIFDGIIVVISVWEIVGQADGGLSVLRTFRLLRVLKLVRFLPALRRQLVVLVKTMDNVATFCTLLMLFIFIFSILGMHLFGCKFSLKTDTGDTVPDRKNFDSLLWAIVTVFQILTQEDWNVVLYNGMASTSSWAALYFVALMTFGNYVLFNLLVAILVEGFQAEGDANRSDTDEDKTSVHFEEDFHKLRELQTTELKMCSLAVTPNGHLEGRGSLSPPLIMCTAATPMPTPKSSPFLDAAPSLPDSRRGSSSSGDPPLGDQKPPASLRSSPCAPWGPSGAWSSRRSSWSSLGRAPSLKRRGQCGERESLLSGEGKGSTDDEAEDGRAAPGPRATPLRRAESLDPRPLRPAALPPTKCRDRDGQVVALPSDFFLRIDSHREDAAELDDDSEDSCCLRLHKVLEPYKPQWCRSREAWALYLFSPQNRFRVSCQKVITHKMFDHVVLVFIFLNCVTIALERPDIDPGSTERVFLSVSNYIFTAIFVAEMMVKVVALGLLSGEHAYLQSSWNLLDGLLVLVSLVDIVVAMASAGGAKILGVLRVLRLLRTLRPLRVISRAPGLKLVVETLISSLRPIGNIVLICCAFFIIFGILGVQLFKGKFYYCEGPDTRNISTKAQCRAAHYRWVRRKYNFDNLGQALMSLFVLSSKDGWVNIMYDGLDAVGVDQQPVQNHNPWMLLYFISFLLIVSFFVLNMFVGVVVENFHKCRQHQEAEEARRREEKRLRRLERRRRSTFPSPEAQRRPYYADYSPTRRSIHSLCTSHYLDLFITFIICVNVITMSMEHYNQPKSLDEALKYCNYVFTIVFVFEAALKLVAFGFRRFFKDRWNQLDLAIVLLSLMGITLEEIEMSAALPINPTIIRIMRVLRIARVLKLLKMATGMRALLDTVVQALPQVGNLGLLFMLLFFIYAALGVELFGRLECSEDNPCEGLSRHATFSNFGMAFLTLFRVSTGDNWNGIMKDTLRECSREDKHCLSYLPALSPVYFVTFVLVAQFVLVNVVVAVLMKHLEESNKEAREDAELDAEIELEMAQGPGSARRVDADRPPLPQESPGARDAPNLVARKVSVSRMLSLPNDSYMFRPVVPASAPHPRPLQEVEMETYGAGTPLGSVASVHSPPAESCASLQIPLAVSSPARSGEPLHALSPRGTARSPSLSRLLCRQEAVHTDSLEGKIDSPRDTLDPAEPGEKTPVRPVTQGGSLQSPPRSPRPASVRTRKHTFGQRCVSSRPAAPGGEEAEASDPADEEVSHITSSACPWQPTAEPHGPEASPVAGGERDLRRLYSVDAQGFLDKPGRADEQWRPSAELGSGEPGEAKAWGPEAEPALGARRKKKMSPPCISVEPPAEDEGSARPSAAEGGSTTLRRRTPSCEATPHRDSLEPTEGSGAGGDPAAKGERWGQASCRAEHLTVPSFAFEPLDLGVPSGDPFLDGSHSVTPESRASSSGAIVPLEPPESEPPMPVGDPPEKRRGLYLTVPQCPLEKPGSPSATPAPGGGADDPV

C=C1CC2(OC1=O)c1ccccc1CCc1ccccc12
AC50 [1]: 1.28 µM (active) | AC50 [2]: 11.4 µM (active) | AC50 [3]: 5.67 µM (active)

CC(C)[C@](O)(C(=O)OCC1=CCN2CC[C@@H](O)[C@@H]12)[C@H](C)O
GI50 (P388/ADR): > 375 µM (inactive) | GI50 (SN12K1): > 375 µM (inactive) | GI50 (P388): > 375 µM (inactive)

CCCNS(=O)(=O)c1cccc(C(=O)NC2CCCc3ccccc32)c1 (stereo not given)
IC50 [4]: 13.5 µM (active) | IC50 [5]: > 47.1 µM (inactive) | EC50 [6]: > 53 µM (inactive)

CN(CCOc1ccc(Cl)cc1)C(=O)c1cccc(S(=O)(=O)N2CCN(Cc3ccccc3)CC2)c1
AC50 [1]: 2.29 µM (active) | AC50 [2]: > 70 µM (inactive) | AC50 [3]: 3.57 µM (active)

O=C1N=C2SCCN2/C1=C\c1ccccc1Cl
IC50 [7]: > 66 µM (inactive) | IC50 [8]: > 66 µM (inactive)

Cc1ccc(C)c(NC(=O)C2C(c3ccccc3)C2(Cl)Cl)c1 (stereo not given)
EC50 [9]: 0.968 µM (active)

COc1ccc(Cc2nn(C3OC(COC(C)=O)C(OC(C)=O)C(OC(C)=O)C3OC(C)=O)c(=S)n(-c3ccc(OC)cc3)c2=O)cc1 (stereo not given)
GI50 (P388/ADR): > 100 µM (inactive) | GI50 (SN12K1): > 100 µM (inactive) | GI50 (P388): > 100 µM (inactive)

COc1ccc(OCC(O)CNCCOc2ccccc2OC)c(C(C)(C)C)c1 (stereo not given)
CC50 [10]: 14.7 µM (active) | AC50 [1]: 11.6 µM (active) | AC50 [2]: 30.7 µM (active) | AC50 [3]: 19.6 µM (active)

C=C1C(C)C2C(Cc3ccccc3)NC(=O)C23C(OC(C)=O)C=CC(C)(O)C(=O)C(C)C/C=C/C3C1O (stereo not given)
GI50 (P388/ADR): 14.4 µM (inactive) | GI50 (SN12K1): 0.0619 µM (active) | GI50 (P388): 0.454 µM (active)

O=C1CC(c2nc3ccccc3[nH]2)CN1c1cccc(C(F)(F)F)c1 (stereo not given)
EC50 [9]: 8.89 µM (active)

Cc1ccccc1-n1c(C)cc(/C=N/NC(=O)c2ccc(CN3CCOCC3)cc2)c1C
IC50 [4]: 7.94 µM (active)

O=C(CSc1nnc(-c2ccncc2)n1Cc1ccco1)c1ccc(Cl)cc1
IC50 [4]: 1.91 µM (active)

c1ccc2c3c(ccc2c1)-c1[nH]ncc1CCO3
GI50 (P388/ADR): 26.9 µM (inactive) | GI50 (SN12K1): 22.4 µM (inactive) | GI50 (P388): 26.1 µM (inactive)

CN(C(=S)NC(=O)CCCOc1ccc(Cl)cc1Cl)c1ccccc1
EC50 [9]: 4.13 µM (active)

CCc1nn2c(NCCOC)cc(C)nc2c1-c1ccc(F)cc1
IC50 [4]: 14.5 µM (active)

CC(C)CC(/C(O)=C(\C#N)c1nc2ccccc2[nH]1)N1C(=O)c2ccccc2C1=O (stereo not given)
CC50 [10]: 21 µM (active) | EC50 [11]: > 120 µM (not active) | EC50 [12]: > 120 µM (not active) | EC50 [13]: 12.3 µM (active) | EC50 [9]: 14.8 µM (active) | EC50 [14]: > 260 µM (inactive)

Cc1ccc(NC(=O)CSc2nccn2Cc2ccccc2)cc1C
EC50 [9]: 2.74 µM (active)

O=C(Cc1c[nH]c2ccccc12)OCCOC(=O)Cc1c[nH]c2ccccc12
EC50 [9]: 4.77 µM (active)

COC(=O)c1ccc2c(=O)sc(N3CCC(C(N)=O)CC3)nc2c1
IC50 [7]: > 66 µM (inactive) | IC50 [8]: 52.6 µM (inactive)

COC(=O)c1cccc(N[C@@H]2c3cc4c(cc3C(c3cc(OC)c(O)c(OC)c3)[C@H]3C(=O)OCC32)OCO4)c1 (stereo not given in full)
GI50 (P388/ADR): 0.271 µM (active) | GI50 (SN12K1): 0.23 µM (active) | GI50 (P388): 0.0103 µM (active)

Cc1nc2ccccc2c(=O)n1Nc1ccc(C(=O)O)cc1
GI50 (P388/ADR): > 100 µM (inactive) | GI50 (SN12K1): > 100 µM (inactive) | GI50 (P388): > 100 µM (inactive)

O=C1C(Br)=CC2([N+](=O)[O-])CCNC3=C(C4=NCCc5c[nH]c(c54)C3=O)C2=C1Br (stereo not given)
GI50 (P388/ADR): 0.579 µM (active) | GI50 (SN12K1): 3.3 µM (inactive) | GI50 (P388): 0.317 µM (active)

CCOC(=O)NC1=C(N2CC2)C(=O)C(NC(=O)OCC)=C(N2CC2)C1=O [DIAZIQUONE]
GI50 (P388/ADR): 2.72 µM (inactive) | GI50 (SN12K1): 2.94 µM (inactive) | GI50 (P388): 1.77 µM (inactive)

O=C1NC(=O)C2C3C=CC(C12)C1C2C(=O)NC(=O)C2C31 (stereo not given)
GI50 (P388/ADR): 122 µM (inactive) | GI50 (SN12K1): 85.3 µM (inactive) | GI50 (P388): 21 µM (inactive)

CN(C)C1(C/N=C/c2cc(Cl)cc([N+](=O)[O-])c2O)CCCCC1
IC50 [4]: 14.5 µM (active)

CCc1ccc(N(C(=O)c2snc(C(N)=O)c2N)C(C(=O)NCC2CCCO2)c2ccco2)cc1 (stereo not given)
IC50 [15]: > 20 µM (inactive)

NS(=O)(=O)c1ccc(CCNCc2cc(Br)ccc2OCc2ccccc2)cc1
AC50 [1]: 2.92 µM (active) | AC50 [2]: 53.7 µM (active) | AC50 [3]: 5.96 µM (active)

Cc1ccc(-c2nnn(CC(=O)N(c3ccccc3F)C(C(=O)NCC3CCCO3)c3c[nH]c4ccccc34)n2)cc1 (stereo not given)
EC50 [9]: 4 µM (active)

Cc1cccc(C)c1NC(=S)Nc1ccc(F)cc1
IC50 [7]: > 66 µM (inactive) | IC50 [5]: > 47.1 µM (inactive) | IC50 [8]: > 66 µM (inactive) | EC50 [6]: > 53 µM (inactive)

CC1CCN(C(=S)c2ccc([N+](=O)[O-])cc2)CC1
IC50 [7]: > 66 µM (inactive) | IC50 [8]: > 66 µM (inactive)

Cc1c2cnccc2c(C)c2c1c1ccccc1n2CC1CO1 (stereo not given)
GI50 (P388/ADR): 0.065 µM (active) | GI50 (SN12K1): 0.719 µM (active) | GI50 (P388): 0.0291 µM (active)

COC(=O)c1ccccc1NC(=O)c1cccc(NC(=O)c2ccc(Br)o2)c1C
EC50 [9]: 5.7 µM (active)

COc1cccc(-c2csc(N3CCN(C(=O)NC45CC6CC(CC(C6)C4)C5)CC3)n2)c1
EC50 [9]: 5.32 µM (active)
